The record followed here is patent US7923465B2, “Cannabinoid receptor ligands, pharmaceutical compositions containing them, and process for their preparation” (priority 2005, dated 2011).

One data set concerns the target hCB2 (Homo sapiens, UniProt P34972). Kind of data set: In vitro binding assay using hCB2-CHO membranes, [3H]-CP-55,940 displacement (Protocol IV). Conditions: 1 h; hCB2-CHO membranes, [3H]-CP-55,940 displacement; read-out: % Displacement Protocol IV. Also noted: expressed in transfected cells; host or cells: CHO (hCB2-CHO, generated in-house). An outline of the steps:
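Compounds were tested at a single 300 nM final concentration for displacing 0.75 nM [3H]-CP-55,940 from hCB2-CHO membranes (1 h, 30 °C, 50 mM Tris pH 7.4, 5 mM MgCl2, 1 mM EDTA, 0.1% BSA). Filter-bound radioactivity was counted, with 0.5 μM unlabelled CP-55,940 for nonspecific binding; results are % displacement.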

In a further data set the target is CB1 (Rattus norvegicus, UniProt P20272). Kind of data set: Rat CB1 receptor binding using brain membrane, [3H]SR141716A displacement (Protocol I). Also noted: CB1 receptor present in a rat brain membrane preparation; from tissue; host or cells: rat brain membrane; inhibition: dose or concentration left out as unconfirmed. The note with it: 1 h. The procedure:
I. In Vitro Protocol for Rat CB1 Receptor Binding Using Brain Membrane
In this assay, [^3H]SR141716A (5-(4-chlorophenyl)-1-(2,4-dichlorophenyl)-4-methyl-N-(1-piperidyl)pyrazole-3-carboxamide) was used to bind the CB1 receptor present in a rat brain membrane preparation which can be displaced by unlabeled ligands having affinity to the CB1 receptor.
The assay was performed according to the modified method of Thomas et al., 1998 (JPET 285: 285-292). The total reaction mixture ([…]) contained Tris-BSA buffer (50 mM Tris, pH 7.4 with 1.5% BSA) or unlabeled SR141716A […] or test samples […], [^3H] SR141716A (2 nM) and […] of rat brain membrane. The non-specific binding was defined by […] of SR141716A. The assay mixture was incubated at 37° C. for 1 hour. The reaction was then stopped by rapid filtration under vacuum using Whatman GF/B-96 micro filter plate. A scintillation cocktail was added and radioactive counts were measured using a Topcount beta scintillation counter.
The standard and test sample dilutions were made in an assay buffer containing either ethanol or DMSO at a final concentration of 1%.
The percent (%) displacement by a test ligand was calculated by comparing the specific bound values.

The mark [1] stands for this setting: rat brain membrane, [3H]SR141716A displacement, read-out: % Displacement Protocol I.

Where two headings read alike, the source gives them in different places.

CB1, sequence (P20272 whole entry): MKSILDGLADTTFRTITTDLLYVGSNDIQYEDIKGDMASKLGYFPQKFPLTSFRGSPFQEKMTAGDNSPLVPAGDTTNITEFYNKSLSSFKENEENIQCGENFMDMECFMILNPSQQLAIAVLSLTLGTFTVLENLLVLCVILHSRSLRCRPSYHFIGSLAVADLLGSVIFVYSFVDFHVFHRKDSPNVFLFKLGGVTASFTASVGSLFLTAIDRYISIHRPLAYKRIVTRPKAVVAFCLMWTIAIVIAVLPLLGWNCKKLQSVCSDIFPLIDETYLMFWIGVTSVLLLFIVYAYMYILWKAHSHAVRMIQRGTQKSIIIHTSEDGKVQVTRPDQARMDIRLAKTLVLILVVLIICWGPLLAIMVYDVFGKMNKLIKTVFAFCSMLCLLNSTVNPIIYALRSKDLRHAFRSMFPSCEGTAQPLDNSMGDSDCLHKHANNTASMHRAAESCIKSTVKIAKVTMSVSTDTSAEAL
hCB2, sequence (P34972 whole entry): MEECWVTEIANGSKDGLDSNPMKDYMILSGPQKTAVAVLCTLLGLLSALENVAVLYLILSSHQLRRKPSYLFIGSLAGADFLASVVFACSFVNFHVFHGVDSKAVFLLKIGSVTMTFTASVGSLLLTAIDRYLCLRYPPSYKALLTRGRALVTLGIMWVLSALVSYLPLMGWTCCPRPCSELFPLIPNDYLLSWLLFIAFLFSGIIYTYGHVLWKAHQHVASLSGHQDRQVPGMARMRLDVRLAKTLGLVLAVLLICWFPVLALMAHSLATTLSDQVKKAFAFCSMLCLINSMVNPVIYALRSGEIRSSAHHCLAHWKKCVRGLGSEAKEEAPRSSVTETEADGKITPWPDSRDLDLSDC

In the case of `O=C(NNc1ccc(Cl)cc1Cl)c1nn(-c2ccccc2)c2c1C1CC3CC(C1)CC2C3` [Example 167, N(7)-[(2,4-Dichlorophenyl)amino]-5-phenyl-5,6-diazatetracyclo[7.3.1.1^3,11.0^4,8]tetradeca-4(8),6-diene-7-carboxamide], the melting point lay in the range of 166 to 170 °C. Moreover, on hCB2, the inhibition at 0.3 µM was found to be 24.6%. Also, the inhibition at CB1 (setting [1]) was 61.3%.
Turning to `O=C(NN1CCCCC1)c1nn(-c2ccccc2Br)c2c1C1CCC2C1` (stereo not drawn) [Example 270, N(3)-Piperidino-1-(2-bromophenyl)-4,5,6,7-tetrahydro-1H-4,7-methano-indazole-3-carboxamide], the melting point turned out to be 236 °C. Besides, the inhibition at 0.3 µM at hCB2 turned out to be 8.62%. At CB1 (setting [1]), the inhibition was -14.6%.
On the same counts, the results for `O=C(NCC1CCCCC1)c1nn(-c2ccc(Cl)cc2)c2c1C1CC3CC(C1)CC2C3` [Example 108, N(7)-Cyclohexylmethyl-5-(4-chlorophenyl)-5,6-diazatetracyclo[7.3.1.1^3,11.0^4,8]tetradeca-4(8),6-diene-7-carboxamide] are 117 °C, 37.1% and 82.5%.
Taken in the same sequence, the figures for `Cc1ccc(-n2nc(C(=O)NN3CCCCC3)c3c2C2CC4CC(CC3C4)C2)cc1` [Example 160, N(7)-Piperidino-5-(4-methylphenyl)-5,6-diazatetracyclo[7.3.1.1^3,11.0^4,8]tetradeca-4(8),6-diene-7-carboxamide] were 228 to 232 °C, 20.8% and 10%.
Taken in the same sequence, the figures for `O=C(NNc1ccccc1)c1nn(-c2ccc(Cl)cc2)c2c1C1CCC2C1` (stereo not drawn) [Example 228, N(3)-Phenylamino-1-(4-chlorophenyl)-4,5,6,7-tetrahydro-1H-4,7-methano-indazole-3-carboxamide] were 138 to 141 °C, 9.4% and 16.1%.
For `COc1ccc(-n2nc(C(=O)NNc3ccc(Cl)cc3Cl)c3c2C2CC4CC(CC3C4)C2)cc1` [Example 165, N(7)-(2,4-Dichlorophenylamino)-5-(4-methoxyphenyl)-5,6-diazatetracyclo[7.3.1.1^3,11.0^4,8]tetradeca-4(8),6-diene-7-carboxamide], the melting point was 199 °C. The inhibition at 0.3 µM on hCB2 was 45.3%. In addition, at CB1 (setting [1]), the inhibition is 14.2%.
Taken in the same sequence, the figures for `O=C(NNc1ccccc1)c1n[nH]c2c1C1(c3ccccc3)CCC2C1` (stereo not drawn) [Example 204, N(3)-Phenylamino-4-phenyl-4,5,6,7-tetrahydro-1H-4,7-methano-indazole-3-carboxamide] were 189 °C, 10.5% and -10.3%.
Taken in the same sequence, the figures for `O=C(Nc1ccccc1)c1nn(-c2ccc(Cl)cc2)c2c1C1CCC2C1` (stereo not drawn) [Example 214, N(3)-Phenyl-1-(4-chlorophenyl)-4,5,6,7-tetrahydro-1H-4,7-methano-indazole-3-carboxamide] were 137 to 140 °C, 41.3% and 10.1%.
Taken in the same sequence, the figures for `O=C(NNc1ccc(Cl)c(Cl)c1)c1nn(-c2ccc(Cl)cc2Cl)c2c1C1CCC2C1` (stereo not drawn) [Example 262, N(3)-[(3,4-Dichlorophenyl)amino]-1-(2,4-dichlorophenyl)-4,5,6,7-tetrahydro-1H-4,7-methano-indazole-3-carboxamide] were 176 to 179 °C, 32.6% and -1.6%.
In the case of `O=C(NCc1ccccn1)c1nn(-c2ccc(Cl)cc2)c2c1C1CC3CC(C1)CC2C3` [Example 120, N(7)-(2-Pyridylmethyl)-5-(4-chlorophenyl)-5,6-diazatetracyclo[7.3.1.1^3,11.0^4,8]tetradeca-4(8),6-diene-7-carboxamide], the melting point came to 187 °C. Also, the inhibition at 0.3 µM on hCB2 was 9.18%. Further, the inhibition on CB1 (setting [1]) worked out at 30.4%.
Taken in the same sequence, the figures for `O=C(NN1CCCCC1)c1nn(-c2ccccc2)c2c1C1CCC2C1` (stereo not drawn) [Example 201, N(3)-Piperidino-1-phenyl-4,5,6,7-tetrahydro-1H-4,7-methano-indazole-3-carboxamide] were 144 °C, 19.8% and 9%.
Molecule `O=C(NNc1ccccc1)c1nn(-c2ccc(Br)cc2)c2c1C1CCC2C1` (stereo not drawn) [Example 277, N(3)-Phenylamino-1-(4-bromophenyl)-4,5,6,7-tetrahydro-1H-4,7-methano-indazole-3-carboxamide] had a melting point of 138 °C. The inhibition at 0.3 µM at hCB2 was 22.1%. Further, the inhibition on CB1 (setting [1]) is -12.8%.
In turn, `O=C(NNc1ccccc1)c1nn(-c2ccccc2Cl)c2c1C1CCC2C1` (stereo not drawn) [Example 208, N(3)-Phenylamino-1-(2-chlorophenyl)-4,5,6,7-tetrahydro-1H-4,7-methano-indazole-3-carboxamide] had a melting point of 205 °C. Also, the inhibition at 0.3 µM on hCB2 was 0%. Moreover, the inhibition on CB1 (setting [1]) was -1.2%.
On the same counts, the results for `O=C(NN1CCCCC1)c1nn(-c2ccc(Br)cc2)c2c1C1CCC2C1` (stereo not drawn) [Example 274, N(3)-Piperidino-1-(4-bromophenyl)-4,5,6,7-tetrahydro-1H-4,7-methano-indazole-3-carboxamide] are 173 °C, 35.4% and 25.7%.
As for `O=C(NNc1ccc(Cl)cc1Cl)c1nn(-c2ccccc2Cl)c2c1C1CC3CC(C1)CC2C3` [Example 181, N(7)-(2,4-Dichlorophenylamino)-5-(2-chlorophenyl)-5,6-diazatetracyclo[7.3.1.1^3,11.0^4,8]tetradeca-4(8),6-diene-7-carboxamide], the melting point was in the range of 233 to 240 °C. Further, the inhibition at CB1 (setting [1]) worked out at 16.4%.
Taken in the same sequence, the figures for `O=C(NNc1cccc(F)c1)c1nn(-c2ccc(Cl)cc2)c2c1C1CC3CC(C1)CC2C3` [Example 133, N(7)-(3-fluorophenylamino)-5-(4-chlorophenyl)-5,6-diazatetracyclo[7.3.1.1^3,11.0^4,8]tetradeca-4(8),6-diene-7-carboxamide] were 203 °C and 59.7%.
Molecule `O=C(Nc1ccccc1)c1nn(-c2ccc(Cl)cc2Cl)c2c1C1CCC2C1` (stereo not drawn) [Example 243, N(3)-Phenyl-1-(2,4-dichlorophenyl)-4,5,6,7-tetrahydro-1H-4,7-methano-indazole-3-carboxamide] came in with a melting point of 66 to 68 °C. Besides, the inhibition at CB1 (setting [1]) is 23.5%.
Taken in the same sequence, the figures for `COc1ccccc1NC(=O)c1nn(-c2ccc(Cl)cc2)c2c1C1CCC2C1` (stereo not drawn) [Example 218, N(3)-(2-Methoxyphenyl)-1-(4-chlorophenyl)-4,5,6,7-tetrahydro-1H-4,7-methano-indazole-3-carboxamide] were 149 to 151 °C and 29.9%.
On the same counts, the results for `O=C(NNc1ccc(F)cc1)c1nn(-c2ccc(Cl)cc2)c2c1C1CC3CC(C1)CC2C3` [Example 130, N(7)-(4-Fluorophenylamino)-5-(4-chlorophenyl)-5,6-diazatetracyclo[7.3.1.1^3,11.0^4,8]tetradeca-4(8),6-diene-7-carboxamide] are 125 to 127 °C and 60.6%.
On the same counts, the results for `O=C(NCc1ccc(Br)cc1)c1nn(-c2ccc(Cl)cc2)c2c1C1CCC2C1` (stereo not drawn) [Example 225, N(3)-(4-Bromobenzyl)-1-(4-chlorophenyl)-4,5,6,7-tetrahydro-1H-4,7-methano-indazole-3-carboxamide] are 181 to 183 °C and 31.1%.
Molecule `O=C(NCc1ccccc1)c1nn(-c2ccccc2)c2c1C1CCC2C1` (stereo not drawn) [Example 203, N(3)-Benzyl-1-phenyl-4,5,6,7-tetrahydro-1H-4,7-methano-indazole-3-carboxamide] displayed a melting point of 115 °C. Besides, the inhibition at CB1 (setting [1]) is -10.4%.
`O=C(NC1CCCCC1)c1nn(-c2ccc(F)cc2)c2c1C1CCC2C1` (stereo not drawn) [Example 279, N(3)-Cyclohexyl-1-(4-fluorophenyl)-4,5,6,7-tetrahydro-1H-4,7-methano-indazole-3-carboxamide] displayed a melting point of 127 °C. Moreover, the inhibition on CB1 (read-out: % Displacement Protocol I, rat brain membrane, [3H]SR141716A displacement) stood at 62%.
The molecule `O=C(NCc1ccccc1Cl)c1nn(-c2ccc(Cl)cc2Cl)c2c1C1CCC2C1` (stereo not drawn) [Example 249, N(3)-(2-Chlorobenzyl)-1-(2,4-dichlorophenyl)-4,5,6,7-tetrahydro-1H-4,7-methano-indazole-3-carboxamide] came in with a melting point of 117 to 120 °C. The inhibition at CB1 (setting [1]) worked out at 47.7%.

Broadly, the melting point is the temperature, or range, at which the solid turns liquid.
